“And” between values parts separate entries of the source, which are not always exact repeats. Equal entries are not always repeated.
Assays:
[1] = tested on: human kidneys; test: Vasodilation in human kidneys perfused ex vivo, 12 hours
Procedure: Human kidneys were perfused ex vivo in order to evaluate the continued function of NOS in the formation of a continual flux of NO. • Group 1—Kidneys perfused with the solution and process of the invention, n=2 • Group 2—Kidneys perfused with heparinized blood with the pharmacologic agent, nitroprusside added at doses of 1.0, 10.0 and 100.0 mg, n=2
The ability to vasodilate and sustain stable perfusion pressures was determined in both groups during 12 hours of ex vivo perfusion.

[2] = tested on: kidneys; test: In situ kidney perfusion during operative procedure, serum creatinine 24 hours posttreatment; type: in vivo; settings: six hours in situ acellular perfusion, n = 2, L-NAME 100 uM
Text: The ability to control NOS function during in situ perfusion was observed by placement of cannulas in the aorta above the renal arteries and in the vena cava below the renal veins. In this manner, the renal vasculature could be isolated from vascular blood flow during surgical procedures repairing aortic aneurysm. The kidneys were perfused with the solution of the present invention by opening the perfusion circuit until the blood was flushed from the kidneys. The circuit was then closed and the kidneys perfused acellularly until the end of the surgical procedure and reflow of blood was restored. The cannulas were removed, the incision in the aorta and vena cava closed and blood flow reinstated. During six hours of acellular perfusion the concentration of NO3-was determined every 2 hours and the concentration of L-arginine was adjusted to control the NO flux around the set range using the method described above. Following reperfusion with vascular blood flow, the renal function was evaluated 24 hours posttreatment by determining the serum creatinine (SCR) concentration. Controls consisted of kidneys perfused without L-arginine and kidneys perfused with the addition of L-NAME (100 uM).

[3] = tested on: canine kidneys; test: Regulation of NO flux by titrating L-arginine (nitrite, electrochemical detection)
Procedure: It is desirable to control the flux of NO in tissues, limbs and organs while they are deprived of physiologic blood flow. In certain clinical situations such as the case of septic shock it may be necessary to inhibit the production of NO. Therefore, the ability to regulate the production of NO was evaluated using the solution and process of the present invention. The production of NO was monitored using electrochemical detection using a carbon-modified anode in stream. Oxidation of NO transfers electrons from NO to the anode generating nitrosonium cation that is converted to nitrite as follows: NO→NO+→HONO→NO2^− Canine kidneys were perfused with the solution of the invention without L-arginine. The substrate L-arginine was added to the perfusion path separately to measure the ability to control NO production.
Controls consisted of kidneys perfused with L-Name to inhibit NOS function and kidneys perfused with the solution and process of the present invention but without L-arginine.

[4] = tested on: isolated canine kidneys; test: Nitric oxide flux in isolated canine kidneys, 48 hour perfusion; settings: for mean NO3 accumulation in the perfusion solution: following 48 hours, ion chromatograph, mean±standard deviation; for net weight gain (edema): isolated canine kidneys, L-NAME and L-NIL 100 μM added to the perfusion solution
Procedure: Kidneys were perfused with the perfusion solution and process described above for 48 hours.
The concentration of nitrate in the solution was determined by analysis on a Dionex DX-500 ion chromatograph using an AS-15 column and KOH eluant that varied in concentration by a programmed gradient. Alternatively, an electrode can be utilized to monitor NO flux in stream. All samples were analyzed in duplicate and were diluted by a factor of 11 and the values expressed as the mean±standard deviation for the kidneys perfused with the solution of the invention or control kidneys perfused with RPMI medium.

[5] = tested on: iNOS; settings: cited from earlier work
[6] = tested on: kidneys; test: Control of NO3 production around a target during 48 hours perfusion
Procedure: Kidneys were perfused for 48 hours and during the perfusion the kidneys were monitored every 4 hours for the concentration of NO3^− in the circulation. Alternatively, NO concentration can be evaluated by measuring NO directly using an electrode or by measurement of the decrease in concentration of the substrate such as L-arginine. […] The perfusate was exchanged at the rate of 20% v/v every 4 hours with the concentration of L-arginine varying to control the production of NO.

[7] = tested on: canine kidneys; test: Endothelial-dependent vasodilation by acetylcholine in perfused canine kidneys; settings: acetylcholine 1.0 mg; kidneys perfused with the solution of the invention
Procedure: Canine kidneys were tested for the ability to produce NO by induction with acetylcholine at a concentration of 1.0, 10.0 or 100 mg. The acetylcholine was administered to the perfusion path of kidneys using the solution and process of this invention and also in control kidneys that were perfused with RPMI medium alone.

[8] = tested on: canine kidneys; test: Nitrate accumulation and acetylcholine vasodilation after 30 minutes warm ischemia and 18 hours perfusion; settings: One mg of acetylcholine
[9] = tested on: canine kidneys; test: CoPP in the perfusate during EMS perfusion: kidney metabolism and function
Procedure: (§1) Test group (n=3) canine kidneys were excised, cannulated, flushed of blood with EMS perfusion solution and placed on EMS perfusion at 32° C.-34° C. for 6 hours with either 5, 25 or 50 uM cobalt protoporphyrin (CoPP) added to the perfusate. Metabolic and functional evaluations consisted of quantification of the ex vivo kidney function during the period of HO-1 induction. Using the EMS technology, kidneys were maintained in a metabolically active state by perfusion at near physiologic temperature. Kidneys weighing approximately 70-90 gm were procured following brain death with concomitant warm ischemia of no more than 15 minutes. The kidneys were then transitioned to EMS perfusion at 32° C. to 34° C. The kidneys were evaluated for oxidative metabolism, vascular dynamics and organ function. The organ parameters were allowed to stabilize for one hour prior to the evaluation of function. Samples from the arterial and venous lines were collected, along with the urine produced during the perfusions. PO2 measurements for the arterial and venous samples were made with a Radiometer ABL5.
Oxygen consumption was calculated as: ml/min/gm=(PO2 artery−PO2 venous)×(flow rate).
The vascular resistance was calculated as: vasc resis=mean arterial pressure/mean flow rate
Creatinine was added to the perfusate as a tracer. The urine made during the EMS perfusions at 32° C. to 34° C. was collected and tested. The concentration of creatinine was measured on an IDEXX Vet Lab chemistry analyzer and the glomerular filtration rate (GFR) was calculated as: […]

[10] = tested on: hemeoxygenase-1 (HO-1); test: Up-regulation of hemeoxygenase-1 by CoPP during EMS perfusion; design: species or system canine; settings: individual kidneys
Procedure: EMS perfusion can be used to deliver a drug to an organ, section of anatomy or tissue in a targeted fashion. In addition, during any procedure the EMS supported ongoing metabolism and function can be monitored providing a mechanism to quantify the impact of the drug and any corresponding cellular response to it. For example, a compound known to cause the up-regulation of the heat-shock protein, hemeoxygenase-1 was administered to an isolated kidney being perfused in accordance with the technology of the present invention. The EMS technology provided adequate support of renal metabolism and function during ex vivo perfusion to increase expression of the hemeoxygenase-1 (HO-1) enzyme within six hours.
as §1, with “Metabolic” for “Test group (n=3) canine kidneys were excised, cannulated, flushed of blood with EMS perfusion solution and placed on EMS perfusion at 32° C.-34° C. for 6 hours with either 5, 25 or 50 uM cobalt protoporphyrin (CoPP) added to the perfusate. Metabolic”

[11] = tested on: canine kidneys; test: CoPP in the perfusate during EMS perfusion: kidney metabolism and function; settings: for F.R. (vascular flow rate) / GFR (glomerular filtration rate) / MAP (mean arterial pressure) / Urinary Protein / Urine Flow / Vasc Res (vascular resistance) / 02 Cons (oxygen consumption): n = 2, mean

Molecule: nitroprusside
- decrease in the mean arterial pressures ([1]; nitroprusside 1.0 mg, heparinized blood perfusion): did not lead to an appreciable decrease
- decrease in the mean arterial pressures ([1]; nitroprusside 10.0 mg, heparinized blood perfusion): 6 mmHg
- decrease in the mean arterial pressures ([1]; nitroprusside 100 mg, excessive vascular flow associated with renal damage): profound decrease

Molecule: COC(=O)[C@@H](N)CCCNC(=N)N[N+](=O)[O-] [L-NAME, N^6-nitro-L-arginine methyl ester]
- SCr [2]: 4.2 mg/dL
- NO2 ([3]; Control, kidneys perfused with L-Name): 0.17 ± 0.3 mg/dL
- mean NO3 accumulation in the perfusion solution [4]: 0.16 ± 0.1 mg/L
- net weight gain (edema) [4]: 350%

Molecule: CC(=N)NCCCC[C@H](N)C(=O)O.Cl [L-NIL]
- selectivity for iNOS in comparison to the constitutive endothelial NOS isoform [5]: approximately 28 fold
- mean NO3 accumulation in the perfusion solution [4]: 0.51 ± 0.2 mg/L
- net weight gain (edema) [4]: 206%

Molecule: N=C(N)NCCC[C@H](N)C(=O)O [L-arginine]
- NO3 ([6]; perfusion time 4 hours, target 200 ug/L/hr+/−10): 203 µg/L/h
- NO3 ([6]; perfusion time 8 hours): 180 µg/L/h
- NO3 ([6]; perfusion time 12 hours): 205 µg/L/h
- NO3 ([6]; perfusion time 16 hours): 195 µg/L/h
- NO3 ([6]; perfusion time 20 hours): 201 µg/L/h
- NO3 ([6]; perfusion time 24 hours): 210 µg/L/h
- NO3 ([6]; perfusion time 28 hours): 195 µg/L/h
- NO3 ([6]; perfusion time 32 hours): 202 µg/L/h
- NO3 ([6]; perfusion time 36 hours): 210 µg/L/h
- NO3 ([6]; perfusion time 40 hours): 190 µg/L/h
- NO3 ([6]; perfusion time 44 hours): 203 µg/L/h
- NO3 ([6]; perfusion time 48 hours): 209 µg/L/h
- NO2 ([3]; L-arginine 18 mg, n = 3): 1.2 ± 0.1 mg/dL
- NO2 ([3]; L-arginine 35 mg, n = 3): 3.1 ± 0.1 mg/dL
- NO2 ([3]; L-arginine 70 mg, n = 3): 5.8 ± 0.3 mg/dL
- NO2 ([3]; L-arginine 140 mg, n = 3): 11.2 ± 0.5 mg/dL

Molecule: CC(=O)OCC[N+](C)(C)C [acetylcholine]
- mean drop in systolic pressures [7]: 20 mmHg
- time to vasodilation after administration [7]: ≤ 5 min
- time to decrease in mean arterial pressure ([8]; Group 1): ≤ 5 min
- decrease in mean arterial pressure ([8]; Group 1, perfusion with the solution of the invention): 10 mmHg
- decreased perfusion pressure ([1]; acetylcholine 1.0 mg, Group 1): 8 mmHg
- vascular flow rate after vasodilation ([1]; acetylcholine 1.0 mg, Group 1): > 150 cc/min

Molecule: C[C@@H]1C[C@H]2[C@@H]3CCC4=CC(=O)C=C[C@]4(C)[C@@]3(F)[C@@H](O)C[C@]2(C)[C@@]1(O)C(=O)CO [dexamethasone]
- mean NO3 accumulation in the perfusion solution [4]: 0.18 ± 0.1 mg/L

Molecule: C=CC1=C(C)c2cc3[n-]c(cc4nc(cc5[n-]c(cc1n2)c(C)c5CCC(=O)[O-])C(CCC(=O)[O-])=C4C)c(C)c3C=C.[Co+2].[H+].[H+] [CoPP, cobalt protoporphyrin]
- inhibition of the GFR ([9]; CoPP 50 μM): 91%
- reduction of urine flow ([9]; CoPP increased from 5 to 25 μM): 66%
- reduction of urine flow ([9]; CoPP increased to 50 μM): > 90%
- Hemeoxygenase-1, CoPP induction during EMS perfusion ([10]; 5 μM CoPP): 9.6 IU and 13.2 IU
- Hemeoxygenase-1, CoPP induction during EMS perfusion ([10]; 10 μM CoPP): 16.3 IU and 13.4 IU
- Hemeoxygenase-1, CoPP induction during EMS perfusion ([10]; 25 μM CoPP): 16.1 IU and 16.7 IU
- Hemeoxygenase-1, CoPP induction during EMS perfusion ([10]; 50 μM CoPP): 15.2 IU and 14.7 IU
- F.R. (vascular flow rate) ([11]; 5 uM CoPP): 114 cc/min
- GFR (glomerular filtration rate) ([11]; 5 uM CoPP): 7.02 mL/min
- MAP (mean arterial pressure) ([11]; 5 uM CoPP): 47 mmHg
- Urinary Protein ([11]; 5 uM CoPP): 0.16 gm/dL
- Urine Flow ([11]; 5 uM CoPP): 6 cc/hr
- Vasc Res (vascular resistance) ([11]; 5 uM CoPP): 0.41
- 02 Cons (oxygen consumption) ([11]; 5 uM CoPP, 6 hours EMS perfusion): 0.18 cc/min/gm
- 02 Cons (oxygen consumption) ([11]; 25 uM CoPP): 0.23 cc/min/gm
- F.R. (vascular flow rate) ([11]; 25 uM CoPP): 114 cc/min
- GFR (glomerular filtration rate) ([11]; 25 uM CoPP): 2.05 mL/min
- MAP (mean arterial pressure) ([11]; 25 uM CoPP): 47 mmHg
- Urinary Protein ([11]; 25 uM CoPP): 3.62 gm/dL
- Urine Flow ([11]; 25 uM CoPP): 2 cc/hr
- Vasc Res (vascular resistance) ([11]; 25 uM CoPP): 0.41
- 02 Cons (oxygen consumption) ([11]; 50 uM CoPP): 0.17 cc/min/gm
- F.R. (vascular flow rate) ([11]; 50 uM CoPP): 108 cc/min
- GFR (glomerular filtration rate) ([11]; 50 uM CoPP): 0.6 mL/min
- MAP (mean arterial pressure) ([11]; 50 uM CoPP): 48 mmHg
- Urinary Protein ([11]; 50 uM CoPP): 3.44 gm/dL
- Urine Flow ([11]; 50 uM CoPP): 0.5 cc/hr
- Vasc Res (vascular resistance) ([11]; 50 uM CoPP): 0.44
- reduction of GFR ([11]; CoPP increased from 5 to 25 μM): 71%

Source: patent US7985536B2, “Method for regulating NO production in an isolated organ or tissue during warm perfusion” (priority 1999, dated 2011)
